This test has as its system T1, P-19486 alliinase.
T1 construct: homodimer 96 kDa, subunit 48 kDa; PLP-dependent
Description: colorimetric pyruvic acid production. The test is classed as biochemical, Ensifer adhaerens. The following applies: 20 uM PLP, 50 mM sodium phosphate pH 7.0, 30°C, read-out: Kinetic constants / Km. The text has this: colorimetric pyruvic acid production on P-19486 alliinase

Like-named read-outs stand apart in the source and are kept apart here.

In the case of `C=CC[S@+]([O-])C[C@H](N)C(=O)O` [(+)-Alliin], the Km was found to be 5.7 mM.

For the compound `C=CCSC[C@H](N)C(=O)O` [S-Allyl-L-cysteine], the Km was found to be 10.6 mM.

Turning to `C=CC[S+]([O-])C[C@H](N)C(=O)O` (mixture of isomers) [(±)-Alliin], the Km (diastereomer mixture) is 2.3 mM.

The record behind these values is PMC3159909, “Alliinase from Ensifer adhaerens and Its Use for Generation of Fungicidal Activity” (AMB Express, 2011).
